Source: patent US20250090698A1, “SMALL MOLECULE INHIBITORS FOR EARLY DIAGNOSIS OF PROSTATE SPECIFIC MEMBRANE ANTIGEN CANCERS AND NEURODEGENERATIVE DISEASES” (INDIAN INSTITUTE OF TECHNOLOGY INDORE, priority 2018, published 2025)
Values joined by “and” are separate entries in the source; they are usually repeats but may differ in a detail not shown here. Equal entries are not always repeated.

Experiments:
[1] = molecular target: T1, PSMA protein isolated from prostate cancer cell LNCaP (Homo sapiens, UniProt Q04609); test: PSMA or GCPII enzyme inhibition (NAALADase) assay, Amplex Glutamate kit; type: biochemical; settings: NAAG 30 nM substrate, 60 min, fluorescence
T1 construct: membrane portion of PSMA enzyme was extracted from PSMA+ LNCaP cell line; endogenous in cells; host or cells: LNCaP (membrane pellet after 100,000 x g ultracentrifugation)
Experimental: Briefly, PSMA enzyme was extracted from membrane lysates of LNCaP cell lines after separating the soluble cytosolic PSM′ portion by ultracentrifugation at 100,000×g. The PSMA enzyme (8.3027 ng, 100 μL) free from cytosolic portion was incubated with various concentrations of the AAPT inhibitor (0.1 nM to 1000 nM, 100 μL) in the presence of NAAG (30 nM, 50 μL) for 60 min in a 24-well plate. The amount of glutamic acid released by the hydrolysis of NAAG during competitive inhibition by AAPT inhibitor was measured by incubating each well with a working solution of Amplex Red reagent (100 uM, 50 μL) for 30 min at 37° C. The fluorescence emission from each well, proportional to the amount of released glutamic acid, was measured using Synergy H1 multimode plate reader (BioTek Instruments, Inc., Winooski, VT, USA) at an excitation and emission wavelength of 530 nm and 590 nm respectively.
In the first trial, the enzyme inhibition analysis was performed by incubating PSMA enzyme with increasing concentrations of inhibitor, AAPT.
Fluorescent-based enzyme inhibition assay was performed to determine the IC50 value of the newly synthesized GCPII inhibitors 1-3 (AAPT ligands). Amplex Glutamate kit was purchased from Invitrogen, and a working solution of Amplex Red reagent (5 mL, 100 μM) was prepared. Meanwhile, membrane portion of PSMA enzyme was extracted from PSMA+ LNCaP cell line by following a reported protocol. Briefly LNCaP cells (1 million) were harvested in HEPES buffer (1 mL) and lyzed twice using probe sonicator for 30 s. […] The amount of glutamic acid released by the hydrolysis of NAAG was measured by incubating a working solution of Amplex Red reagent (50 μL, 100 μM) for 30 min at 37° C. The fluorescence emission after the oxidation of Amplex Red reagent was measured by using Synergy H1 multimode plate reader (BioTek Instruments, Inc., Winooski, VT, USA). The excitation wavelength was fixed at 530 nm, and the fluorescence emission is measured at 590 nm. […]

[2] = molecular target: T2, PSMA protein (Homo sapiens, UniProt Q04609); test: Binding affinity of 99mTc AAPT-PCa bioconjugates in PSMA+ LNCaP cells, gamma counter; settings: 99mTc bioconjugate, counts per minute, 1 h incubation, read-out: dissociation constant (KD), binding affinity
T2 construct: endogenous in cells; host or cells: LNCaP
Experimental: In an embodiment, FIG. 24, evaluation of binding affinity of AAPT-PCa Bioconjugate 8a in PSMA+ LNCaP cells was done, using gamma scintillation counter. The binding affinity constant of PSMA targeted conjugate, 8a, to target PSMA was determined in vitro in LNCaP cells by measuring the counts per minute for different concentrations of the ^99mTc bioconjugate 8a in triplicate.
A solution of stannous chloride dihydrate (0.80 mg, 0.003 mmol) in 0.2 M hydrochloric acid (0.8 mL) was added to a solution of sodium-α-D-glucoheptonate dihydrate (800 mg, 2.815 mmol) in nitrogen-purged water. Chelating bioconjugate 8a-g (0.001 mmol) was added to the reaction mixture while continuous nitrogen purging. The pH of the solution was adjusted to 6.8 using 0.1 N sodium hydroxide solution. After the pH adjustment nitrogen-purged water was added to achieve a total volume of 10 mL. The solution was then dispensed in 5 mL vials (1 mL/vial) under nitrogen atmosphere and lyophilized for 48 h. […]
The cells were then gently dissociated with trypsin and centrifuge to obtain a pellet. […] The cell pellet free of unbound bioconjugate was resuspended in the ice-cold FACS buffer to evaluate cell-bound radioactivity using a gamma counter. The dissociation constant Kd was calculated using graph pad prism 7.04.

[3] = molecular target: T2, PSMA protein; test: Binding affinity of fluorescent conjugates in LNCaP cells by flow cytometry (FACS); settings: mean fluorescence intensity, triplicate, read-out: dissociation constant (KD)
Experimental: In an embodiment in FIG. 15, Evaluation of binding affinity of PSMA targeted fluorescent conjugate 22, AAPT-C17201, using flow cytometry analysis. The binding affinity constant of PSMA targeted fluorescent conjugate, AAPT-C17201, to target PSMA was determined in vitro in LNCaP cells by measuring the mean fluorescence intensity per cell for different concentrations of the fluorescent conjugate in triplicate using Fluorescence Activated Cell Sorting (FACS) study.

T2 sequence (Q04609 whole entry): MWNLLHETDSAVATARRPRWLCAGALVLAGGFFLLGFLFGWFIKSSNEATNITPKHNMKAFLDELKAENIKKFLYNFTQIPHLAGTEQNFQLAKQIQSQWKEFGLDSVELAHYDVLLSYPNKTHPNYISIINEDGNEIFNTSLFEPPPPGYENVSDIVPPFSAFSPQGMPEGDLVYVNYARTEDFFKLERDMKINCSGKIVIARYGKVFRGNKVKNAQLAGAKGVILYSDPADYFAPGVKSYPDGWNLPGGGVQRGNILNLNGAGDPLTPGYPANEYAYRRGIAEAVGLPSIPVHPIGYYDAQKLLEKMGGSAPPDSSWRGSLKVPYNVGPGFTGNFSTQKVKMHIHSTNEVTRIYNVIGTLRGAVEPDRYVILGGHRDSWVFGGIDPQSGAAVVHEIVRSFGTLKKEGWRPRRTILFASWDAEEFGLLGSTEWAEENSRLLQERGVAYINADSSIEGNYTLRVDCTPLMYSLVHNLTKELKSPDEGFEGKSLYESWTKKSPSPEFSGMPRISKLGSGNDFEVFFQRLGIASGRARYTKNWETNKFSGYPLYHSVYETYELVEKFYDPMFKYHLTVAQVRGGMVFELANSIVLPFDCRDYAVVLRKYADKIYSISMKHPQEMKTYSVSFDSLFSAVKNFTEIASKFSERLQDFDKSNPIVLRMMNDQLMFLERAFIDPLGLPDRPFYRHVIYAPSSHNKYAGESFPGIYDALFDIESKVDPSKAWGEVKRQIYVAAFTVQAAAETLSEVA
T1 sequence (Q04609 whole entry): as above

| SMILES | Kd [3] [nM] | also measured |
| --- | --- | --- |
| O=C(O)CC[C@H](NCC(=O)N[C@@H](CCC(=O)O)C(=O)O)C(=O)O [Ligand 1] | – | IC50 [1]: 38.5 nM and 95 nM and 78 nM |
| NC(CNC(=O)[C@H](Cc1cccc2ccccc12)NC(=O)[C@H](Cc1cccc2ccccc12)NC(=O)CCCCCCCNC(=O)CCC(NC(=O)CNC(CCC(=O)O)C(=O)O)C(=O)O)C(=O)N[C@@H](CC(=O)O)C(=O)N[C@@H](CS)C(=O)O (stereo partly shown) [Ligand 8g] | – | Kd [2]: 42 nM |
| CCN(CC)c1ccc2c(-c3ccccc3C(=O)NCCCC[C@H](NC(=O)CCCCCCCNC(=O)[C@H](Cc3ccccc3)NC(=O)[C@H](Cc3ccccc3)NC(=O)CCCCCCCNC(=O)CC[C@H](NC(=O)CN[C@@H](CCC(=O)O)C(=O)O)C(=O)O)C(=O)N[C@@H](CC(=O)O)C(=O)NCCN)c3ccc(=[N+](CC)CC)cc-3oc2c1 [Ligand 22] | 85 | – |
| CCN(CC)c1ccc2c(-c3ccccc3C(=O)NCCCC[C@H](NC(=O)CCCCCCCNC(=O)c3ccc(CNC(=O)[C@H](Cc4ccccc4)NC(=O)[C@H](Cc4ccccc4)NC(=O)CCCCCCCNC(=O)CC[C@H](NC(=O)CN[C@@H](CCC(=O)O)C(=O)O)C(=O)O)cc3)C(=O)N[C@@H](CC(=O)O)C(=O)NCCN)c3ccc(=[N+](CC)CC)cc-3oc2c1 [Ligand 25] | 130 | – |
